≈ marks a conversion by molar mass, not a printed value.
Experiments:
[1] = biological target: Protein kinase C zeta type (Homo sapiens) (UniProt Q05513); test: Inhibition of human PKCzeta (2 to 592 residues) assessed as remaining enzyme activity at 50 uM after 30 mins by 33P-ATP filter-binding assay
[2] = biological target: MAP kinase-activated protein kinase 3 (Homo sapiens) (UniProt Q16644); test: Inhibition of human MAPKAPK3 assessed as remaining enzyme activity at 50 uM after 30 mins by 33P-ATP filter-binding assay
[3] = biological target: Calcium/calmodulin-dependent protein kinase kinase 2 (Homo sapiens) (UniProt Q96RR4); test: Inhibition of human CAMKKbeta (1 to 541 residues) assessed as remaining enzyme activity at 50 uM after 30 mins by 33P-ATP filter-binding assay
[4] = biological target: Serine/threonine-protein kinase Chk2 (Homo sapiens) (UniProt O96017); test: Inhibition of human CHK2 (5 to 543 residues) assessed as remaining enzyme activity at 50 uM after 30 mins by 33P-ATP filter-binding assay
[5] = biological target: MAP/microtubule affinity-regulating kinase 3 (Homo sapiens) (UniProt P27448); test: Inhibition of human MARK3 (2 to 729 residues) assessed as remaining enzyme activity at 50 uM after 30 mins by 33P-ATP filter-binding assay
[6] = biological target: Maternal embryonic leucine zipper kinase (Homo sapiens) (UniProt Q14680); test: Inhibition of human MELK (2 to 651 residues) assessed as remaining enzyme activity at 50 uM after 30 mins by 33P-ATP filter-binding assay
[7] = biological target: Casein kinase I isoform delta (Homo sapiens) (UniProt P48730); test: Inhibition of human CK1delta (1 to 415 residues) assessed as remaining enzyme activity at 50 uM after 30 mins by 33P-ATP filter-binding assay
[8] = biological target: Dual specificity tyrosine-phosphorylation-regulated kinase 2 (Homo sapiens) (UniProt Q92630); test: Inhibition of human DYRK2 (3 to 528 residues) assessed as remaining enzyme activity at 50 uM after 30 mins by 33P-ATP filter-binding assay
[9] = biological target: Dual specificity tyrosine-phosphorylation-regulated kinase 3 (Homo sapiens) (UniProt O43781); test: Inhibition of human DYRK3 (1 to 588 residues) assessed as remaining enzyme activity at 50 uM after 30 mins by 33P-ATP filter-binding assay
[10] = biological target: Serine/threonine-protein kinase pim-1 (Homo sapiens) (UniProt P11309); test: Inhibition of human PIM1 (2 to 313 residues) assessed as remaining enzyme activity at 50 uM after 30 mins by 33P-ATP filter-binding assay
[11] = biological target: Serine/threonine-protein kinase 3 (Homo sapiens) (UniProt Q13188); test: Inhibition of human MST2 (2 to 491 residues) assessed as remaining enzyme activity at 50 uM after 30 mins by 33P-ATP filter-binding assay
[12] = biological target: Mitogen-activated protein kinase kinase kinase 7 (Homo sapiens) (UniProt O43318); test: Inhibition of human TAK1 (1 to 303 residues) assessed as remaining enzyme activity at 50 uM after 30 mins by 33P-ATP filter-binding assay
[13] = biological target: Tyrosine-protein kinase SYK (Homo sapiens) (UniProt P43405); test: Inhibition of human SYK (1 to 635 residues) assessed as remaining enzyme activity at 50 uM after 30 mins by 33P-ATP filter-binding assay
[14] = biological target: Ephrin type-B receptor 3 (Homo sapiens) (UniProt P54753); test: Inhibition of human EPHB3 (561 to 998 residues) assessed as remaining enzyme activity at 50 uM after 30 mins by 33P-ATP filter-binding assay
[15] = biological target: Receptor tyrosine-protein kinase erbB-4 (Homo sapiens) (UniProt Q15303); test: Inhibition of human HER4 (706 to 991 residues) assessed as remaining enzyme activity at 50 uM after 30 mins by 33P-ATP filter-binding assay
[16] = biological target: Discoidin domain-containing receptor 2 (Homo sapiens) (UniProt Q16832); test: Inhibition of human DDR2 (467 to 854 residues) assessed as remaining enzyme activity at 50 uM after 30 mins by 33P-ATP filter-binding assay
[17] = Cell cycle arrest in human HL60 cells assessed as accumulation at S phase at 10 uM (reference value: 36 %); format: functional, cell-based; details: HL-60
[18] = Thermodynamic equilibrium solubility in water at 120 ug/ml by HPLC analysis; format: physicochemical; details: read-out: Therm_solubility
[19] = Thermodynamic equilibrium solubility in PBS buffer at 120 ug/ml at pH 7.4 by HPLC analysis; format: physicochemical; details: read-out: Therm_solubility
[20] = Distribution coefficient, logD of the compound in water/PBS buffer at pH 7.4 at 25 degC after 20 mins by shake flask method; format: physicochemical
[21] = Ionization constant, pKa of the compound in buffer at pH 1 to 13 by uV spectrophotometry; format: physicochemical
[22] = Stability in pH 6.8 buffer at 120 ug/ml after 8 hrs by RP-HPLC analysis; format: physicochemical; details: pH 6.8, 8 h
[23] = Stability in pH 7.4 buffer at 120 ug/ml after 8 hrs by RP-HPLC analysis; format: physicochemical; details: pH 7.4, 8 h
[24] = Stability in SIF solution assessed as reduction in compound AUC at 120 ug/ml after 8 hrs by RP-HPLC analysis; format: physicochemical; details: read-out: Drug degradation
[25] = tested on: K562; test: Cytotoxicity against human K562 cells assessed as cell growth inhibition after 48 hrs by MTT assay; format: functional; details: K562, 48 h
[26] = Cytotoxicity against human MIAPaCa2 cells assessed as cell growth inhibition after 48 hrs by MTT assay; format: functional; details: MIA PaCa-2, 48 h
[27] = Cytotoxicity against human DU145 cells assessed as cell growth inhibition after 48 hrs by MTT assay; format: functional; details: DU-145, 48 h
[28] = tested on: MDA-MB-231; test: Cytotoxicity against human MDA-MB-231 cells assessed as cell growth inhibition after 48 hrs by MTT assay; format: functional; details: MDA-MB-231, 48 h
[29] = tested on: MDA-MB-468; test: Cytotoxicity against human MDA-MB-468 cells assessed as cell growth inhibition after 48 hrs by MTT assay; format: functional; details: MDA-MB-468, 48 h
[30] = Cytotoxicity against human SNB75 cells assessed as cell growth inhibition after 48 hrs by MTT assay; format: functional; details: SNB-75, 48 h
[31] = biological target: Mitogen-activated protein kinase 14 (Homo sapiens) (UniProt Q16539); test: Inhibition of human p38alpha MAPK (1-360 residues) assessed as remaining enzyme activity at 50 uM after 30 mins by 33P-ATP filter-binding assay
[32] = biological target: Mitogen-activated protein kinase 13 (Homo sapiens) (UniProt O15264); test: Inhibition of human p38delta MAPK (1 to 365 residues) assessed as remaining enzyme activity at 50 uM after 30 mins by 33P-ATP filter-binding assay
[33] = biological target: Rho-associated protein kinase 2 (Rattus norvegicus) (UniProt Q62868); test: Inhibition of rat ROCK2 (2 to 543 residues) assessed as remaining enzyme activity at 50 uM after 30 mins by 33P-ATP filter-binding assay

Q: Which Activity [1] does the source give for Cc1cc(=O)c2c(O)cc(O)c([C@H]3CCN(C)C[C@H]3O)c2o1 [ROHITUKINE] here?
A: Its Activity is 118%.

Q: What about the Activity [2] of the same compound?
A: Its Activity is 83%.

Q: What about the Activity [3] of the same compound?
A: Its Activity is 18%.

Q: What about the Activity [4] of the same compound?
A: The Activity was 60%.

Q: And the Activity [5]?
A: Its Activity is 41%.

Q: What about the Activity [6] of the same compound?
A: The Activity was 80%.

Q: And the Activity [7]?
A: The Activity was 78%.

Q: What about the Activity [8] of the same compound?
A: The Activity was 84%.

Q: And the Activity [9]?
A: Its Activity is 77%.

Q: What about the Activity [10] of the same compound?
A: Its Activity is 27%.

Q: What about the Activity [11] of the same compound?
A: Its Activity is 46%.

Q: What about the Activity [12] of the same compound?
A: The Activity was 70%.

Q: And the Activity [13]?
A: Its Activity is 109%.

Q: What about the Activity [14] of the same compound?
A: Its Activity is 82%.

Q: And the Activity [15]?
A: The Activity was 79%.

Q: What about the Activity [16] of the same compound?
A: The Activity was 79%.

Q: And the Activity [17]?
A: Its Activity is 48%.

Q: What about the solubility thermodynamic [18] of the same compound?
A: Its solubility thermodynamic is 10.2 mg/mL (≈ 33.6 mM).

Q: And the solubility thermodynamic [19]?
A: The solubility thermodynamic was 16.9 mg/mL (≈ 55.5 mM).

Q: What about the logD at 20 min [20] of the same compound?
A: Its logD at 20 min is -0.55.

Q: And the pKa [21]?
A: Its pKa is 5.83.

Q: And the Stability [22]?
A: Its Stability is “Stable”.

Q: And the Stability [23]?
A: The Stability was “Stable”.

Q: What about the degraded at 8 h, 120 ug/ml [24] of the same compound?
A: Its degraded at 8 h, 120 ug/ml is 2.42%.

Q: And the GI50 [25]?
A: Its GI50 is 24 µM.

Q: What about the GI50 [26] of the same compound?
A: The GI50 was 19 µM.

Q: And the GI50 [27]?
A: Its GI50 is 26 µM.

Q: And the GI50 [28]?
A: Its GI50 is 13 µM.

Q: What about the GI50 [29] of the same compound?
A: Its GI50 is 17 µM.

Q: What about the GI50 [30] of the same compound?
A: Its GI50 is 22 µM.

Q: And the Activity [31]?
A: The Activity was 69%.

Q: And the Activity [32]?
A: Its Activity is 16%.

Q: And the Activity [33]?
A: The Activity was 64%.

Reference: ChEMBL document CHEMBL3826966, “A chromatography-free isolation of rohitukine from leaves of Dysoxylum binectariferum: Evaluation for in vitro cytotoxicity, Cdk inhibition and physicochemical properties” (Bioorg Med Chem Lett, 2016)
